Publication PMC2721771 (Purinergic Signalling, 2008)
Like-named read-outs stand apart in the source and are kept apart here. Values belong to the compound of their own block, whether it stands above or below them.

Key:
[1] = Storage stability of the trimethylstannyl precursor; type: physicochemical; conditions: −8 °C for several months
[2] = target: T1, rat A3 adenosine receptor (Rattus norvegicus, UniProt P28647); type: binding; conditions: vs [125I]MRS1898 0.1 nM, rA3AR in CHO membranes, mean ± SEM
T1 sequence (P28647 1-320): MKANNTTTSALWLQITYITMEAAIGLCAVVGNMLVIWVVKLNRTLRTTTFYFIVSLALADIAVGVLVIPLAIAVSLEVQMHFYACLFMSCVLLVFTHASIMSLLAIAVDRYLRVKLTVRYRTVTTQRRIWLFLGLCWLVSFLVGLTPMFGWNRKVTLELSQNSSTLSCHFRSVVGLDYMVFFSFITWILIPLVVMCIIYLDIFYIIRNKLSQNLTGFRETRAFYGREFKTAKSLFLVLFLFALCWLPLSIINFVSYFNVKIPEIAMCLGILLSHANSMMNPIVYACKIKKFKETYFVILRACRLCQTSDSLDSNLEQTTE

[3] = target: rA3AR; conditions: cited from earlier work
[4] = target: hA3AR; conditions: cited from earlier work
[5] = system: mouse A3AR; conditions: cited from earlier work
[6] = target: rA1AR; conditions: cited from earlier work

stability upon storage [1]: stable
SMILES: CNC(=O)[C@]12C[C@@H]1[C@@H](n1cnc3c(NCc4cccc([125I])c4)nc(Cl)nc31)[C@H](O)[C@@H]2O [Compound 10]

SMILES: CCCOC(=O)c1c(-c2ccccc2)nc(CC)c(C(=O)SCC)c1CCC [MRS1523, 5-propyl-2-ethyl-4-propyl-3-(ethylsulfanylcarbonyl)-6-phenylpyridine-5-carboxylate]
Ki [2]: 518 ± 236 nM

SMILES: CNc1ncnc2c1ncn2[C@@H]1O[C@H](CO)[C@@H](O)[C@H]1O [N^6-methyladenosine]
Ki ([3]; rA3AR): 6390 nM | Ki [4]: 9.3 nM

SMILES: CCCCC#Cc1nc(NC)c2ncn([C@@H]3O[C@H](CO)[C@@H](O)[C@H]3O)c2n1 [[^3H]HEMADO, 2-hexyn-1-yl-N^6-methyladenosine]
effect on the rA3AR ([3]; rA3AR): no effect | Kd [4]: 1.1 nM

SMILES: CCCn1cc2c(nc(NC(=O)Nc3ccc(OC)cc3)n3nc(-c4ccco4)nc23)n1 [[^3H]MRE 3008F20, 5-[[(4-methoxyphenyl)amino]carbonyl]amino-8-propyl-2-(2-furyl)-pyrazolo[4,3-e]1,2,4-triazolo[1,5-c]pyrimidine]
binding to the rA3AR ([3]; rA3AR): do not bind effectively | binding to the mouse A3AR [5]: do not bind effectively

SMILES: CCNC(=O)[C@H]1O[C@@H](n2cnc3c(N)ncnc32)[C@H](O)[C@@H]1O [[^3H]NECA, 5′-N-ethylcarboxamidoadenosine]
binding affinity at the rA3AR ([3]; rA3AR): weak

SMILES: CC[C@@H]1CN2C(=O)N(C)c3nc(-c4ccccc4)[nH]c3C2=N1 [[^3H]PSB-11, (R)-4-methyl-8-ethyl-2-phenyl-imidazo[2,1-i]purin-5-one]
binding to the rA3AR ([3]; rA3AR): do not bind effectively | binding to the mouse A3AR [5]: do not bind effectively

SMILES: CNC(=O)[C@H]1O[C@@H](n2cnc3c(NCc4ccc(N)c(I)c4)ncnc32)[C@H](O)[C@@H]1O [[^125I]I-AB-MECA, N^6-(4-amino-3-iodobenzyl)-5′-N-methylcarboxamidoadenosine]
Kd ([3]; rat A3AR): ~1 nM | Kd ([3]; read-out: affinity for rA3AR, radioligand affinity, A3): 1.48 nM | Kd ([6]; read-out: affinity for rA1AR, radioligand affinity, A1): 3.42 nM

SMILES: Nc1ccc(CCNc2ncnc3c2ncn3[C@@H]2O[C@H](CO)[C@@H](O)[C@H]2O)cc1I [[^125I]I-APNEA, N^6-(4-amino-3-iodophenylethyl)-adenosine]
Kd ([3]; rA3AR): 15 nM | Kd ([6]; rA1AR): 1.32 nM
